IC50 data for one molecule are collected here from paper PMC6191185 (Cancer cell, 2018).

This test deals with T1, CARM1 (co-activator associated arginine methyltransferase 1, PRMT4) (Homo sapiens, UniProt Q86X55).
T1 sequence (Q86X55 2-608): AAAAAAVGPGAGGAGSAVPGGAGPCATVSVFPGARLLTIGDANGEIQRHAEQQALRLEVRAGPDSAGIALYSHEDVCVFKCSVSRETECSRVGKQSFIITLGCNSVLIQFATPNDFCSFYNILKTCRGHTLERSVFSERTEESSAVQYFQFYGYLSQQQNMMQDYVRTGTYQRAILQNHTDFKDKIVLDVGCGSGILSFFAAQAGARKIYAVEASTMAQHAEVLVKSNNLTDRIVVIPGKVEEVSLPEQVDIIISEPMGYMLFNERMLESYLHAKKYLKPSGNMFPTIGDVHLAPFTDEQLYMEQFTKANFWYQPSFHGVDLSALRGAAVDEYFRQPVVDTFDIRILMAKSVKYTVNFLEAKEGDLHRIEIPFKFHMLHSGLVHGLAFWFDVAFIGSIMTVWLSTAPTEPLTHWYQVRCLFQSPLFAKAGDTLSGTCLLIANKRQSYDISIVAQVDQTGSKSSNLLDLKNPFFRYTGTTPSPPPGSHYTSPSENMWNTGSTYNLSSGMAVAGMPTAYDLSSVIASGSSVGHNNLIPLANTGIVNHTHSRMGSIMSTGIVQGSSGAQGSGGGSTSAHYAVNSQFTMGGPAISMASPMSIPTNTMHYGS
Kind of test: cellular CARM1 substrate methylation. The class given is cell-based.

Usually IC50 stands for the concentration needed to halve the response being measured. A high value points to a need for much substance. Turning to `CNC[C@@H](O)COc1ccc(Cl)c(-c2nc(-c3c(C)noc3C)c(C)c(N3Cc4cnc(N5CCC5)nc4C3)n2)c1` [EPZ025654], the IC50 came to 18 nM.
